Experimental findings from PubChem BioAssay AID652152 (Johns Hopkins Ion Channel Center, 2013) are described below.

pIC50: −log10 of the molar value. The source made the active and inactive calls. No rule for the calls is given here.

For orientation: pIC50 means the IC50 on a negative log10 scale, so that one unit is a factor of ten.

The target in one experiment is Potassium voltage-gated channel subfamily KQT member 2 (Rattus norvegicus) (UniProt O88943). Briefly: KCNQ2 channel inhibitors, SAR follow-up, cell-based, automated electrophysiology (AID 652152). Conditions: KCNQ2-expressing cells, automated patch-clamp current. A general note: In patch-clamp work, channel activity is measured electrically.
Potassium voltage-gated channel subfamily KQT member 2 (Rattus norvegicus), sequence (O88943 whole entry, looked up): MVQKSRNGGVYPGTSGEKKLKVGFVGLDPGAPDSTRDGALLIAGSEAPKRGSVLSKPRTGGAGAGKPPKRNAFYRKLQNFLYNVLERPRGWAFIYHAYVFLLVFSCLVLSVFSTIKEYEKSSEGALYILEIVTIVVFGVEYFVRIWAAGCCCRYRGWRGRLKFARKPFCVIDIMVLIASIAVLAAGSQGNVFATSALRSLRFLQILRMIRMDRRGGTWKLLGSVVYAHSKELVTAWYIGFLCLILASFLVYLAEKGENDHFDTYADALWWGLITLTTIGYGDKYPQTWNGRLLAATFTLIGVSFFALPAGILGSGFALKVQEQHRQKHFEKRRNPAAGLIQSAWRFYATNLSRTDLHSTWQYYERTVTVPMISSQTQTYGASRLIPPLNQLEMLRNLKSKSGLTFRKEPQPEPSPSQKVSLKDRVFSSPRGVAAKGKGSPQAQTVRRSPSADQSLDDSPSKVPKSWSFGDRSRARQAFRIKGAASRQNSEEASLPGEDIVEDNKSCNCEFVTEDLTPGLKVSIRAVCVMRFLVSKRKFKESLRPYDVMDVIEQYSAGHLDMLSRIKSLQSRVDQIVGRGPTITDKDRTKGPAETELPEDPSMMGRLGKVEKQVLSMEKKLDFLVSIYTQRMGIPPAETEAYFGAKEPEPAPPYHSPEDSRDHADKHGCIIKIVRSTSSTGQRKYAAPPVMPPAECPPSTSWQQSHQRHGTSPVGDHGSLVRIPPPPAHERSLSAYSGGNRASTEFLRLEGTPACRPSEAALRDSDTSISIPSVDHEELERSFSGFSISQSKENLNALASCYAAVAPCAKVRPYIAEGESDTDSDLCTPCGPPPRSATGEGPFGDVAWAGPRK
With `CC[C@H](C(=O)Nc1ccccc1N1CCC(F)(F)CC1)c1ccccc1`, the pIC50 was 5.55.

`CC[C@H](C(=O)Nc1ccccc1N1CC[C@H](F)C1)c1ccccc1`: the negative logarithm of the IC50 (pIC50) is 6.68.

Consider `CC[C@H](C(=O)Nc1ccc(N2CCC(F)(F)CC2)cc1)c1ccccc1`, for which the negative logarithm of the IC50 (pIC50) is 6.12.

Take `CC[C@H](C(=O)Nc1ccc(N2CC[C@H](F)C2)cc1)c1ccccc1`: the pIC50 is 6.92.

Take `CC[C@H](C(=O)Nc1ccccc1N1CCN(c2ccncc2C)CC1)c1ccccc1`: the pIC50 is 4.67.

As to `CC[C@H](C(=O)Nc1ccccc1N1CC(c2ccc(Cl)cc2)C1)c1ccccc1`, the pIC50 is 6.05.

Still in this experiment, the particulars now being: KCNQ2-expressing cells, automated patch-clamp current; at 30 µM (top of the series).
For `CC[C@H](C(=O)Nc1ccc(N2CCN(c3ccncc3C)CC2)cc1)c1ccccc1`, the inhibition result was “inactive”.

Turning to `CC[C@H](C(=O)Nc1ccc(N2CC(c3ccc(Cl)cc3)C2)cc1)c1ccccc1`, the inhibition result is “inactive”.

As to `CC[C@H](C(=O)Nc1ccc(N2CCCC(F)C2)cc1)c1ccccc1` (stereo not given in full), the inhibition result was “inactive”.

Consider `CC[C@H](C(=O)Nc1ccc(N2CCN(c3cc(C(F)(F)F)ccn3)CC2)cc1)c1ccccc1`, for which the inhibition entry was “inactive”.
